Assay results as given in EP1354870A1, “DIHYD[…]” (CONSEJO SUPERIOR DE INVESTIGACIONES CIENTIFICAS, priority 2000, dated 2002).

Target: T1, dihydroceramide desaturase (Rattus norvegicus, UniProt Q5XIF5)
T1 construct: from tissue; host or cells: rat liver microsomes
T1 sequence (Q5XIF5 1-323): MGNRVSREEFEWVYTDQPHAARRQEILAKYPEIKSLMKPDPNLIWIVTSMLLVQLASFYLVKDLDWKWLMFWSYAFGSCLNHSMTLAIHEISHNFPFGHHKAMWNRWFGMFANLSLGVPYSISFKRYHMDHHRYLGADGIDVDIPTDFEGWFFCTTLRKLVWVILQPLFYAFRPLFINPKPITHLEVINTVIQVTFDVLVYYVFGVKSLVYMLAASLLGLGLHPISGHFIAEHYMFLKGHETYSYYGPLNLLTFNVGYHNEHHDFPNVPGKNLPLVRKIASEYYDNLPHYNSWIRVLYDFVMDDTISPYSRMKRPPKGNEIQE
Assay: Inhibitory activity on dihydroceramide desaturase in rat liver microsomes (GC-MS quantification of the desaturated product)
Type: biochemical
Conditions: substrate N-octanoyldihydrosphingosine 10 nmoles, NADH, 37°C for 30 minutes, without preincubation, effect dose-dependent
Experimental: The inhibitory activity of the type I compounds that is claimed in this patent was tested on rat liver microsomes, prepared as described in [Michel, C. van Echten-Deckert, G.; Rother, J.; Sandhoff, K.; Wang, E.; Merrill, A. H. J. Biol. Chem. 1997, 272, 22432-22437]. The dihydroceramide desaturase activity was determined according to the procedure described in Michel, C. van Echten-Deckert, G.; Rother, J.; Sandhoff, K.; Wang, E.; Merrill, A. H. J. Biol. Chem. 1997, 272, 22432-22437, with the following modifications: compound la in increasing doses of 0, 0.6, 1.25, 2.5, 5 and 10 nmoles, was solubilized in BSA-ethanol 9:1 (100µl) and to the resulting solution 10 nmoles of substrate dissolved in 10µl of ethanol were added. To this solution was added a total of 0.3 mg of the microsomal suspension containing the desaturase, and 30 µl of a […] solution of NADH in 0.1M phosphate buffer, pH 7.5. The suspension was incubated at 37°C for 30 minutes and the reactions were stopped by adding 0.5 mL of chloroform containing 1 nmol of N-hexanoylsphingosine as an internal standard for quantification. Repeated lipid extractions with chloroform were carried out (2 x 250 µl) and the combined organic extracts were evaporated to dryness under a stream of Nitrogen. The resulting residue was treated with 50 µl of bis-trimethylsilyltrifluoroacetamide at 25°C for 60 minutes. […]

## CCCCCCCCCCCCCC1=C(C(O)C(CO)NC(=O)CCCCCCC)C1 (single isomer, unassigned) [la]
  IC50: 52 nM
